Reference: patent publication US20230226012A1, “USE OF USNIC ACID, A SALT OF USNIC ACID, OR A FORMULATION THEREOF IN THE PREPARATION OF ANTI-AVIAN COCCIDIOSIS DRUGS OR FEED ADDITIVES” (priority 2022, published 2023)

Tested on: Eimeria tenella
Assay: Anticoccidial test in chickens orally inoculated with sporulated oocysts of Eimeria tenella (anticoccidial index, ACI)
Assay type: in vivo
Conditions: for Lesion value: cecum, 7th day after infection; for Oocyst value: converted according to Table 2; for Clinical symptoms (bloody stool): after infection
Text: Male chicks from layer aged 1 day were selected and raised to 12-day-old. Each was weighed, while excluding thin or overweight individuals, healthy chickens with individual weight differences of less than 10 g were selected, and randomly divided into thirteen groups with each group including thirty chickens. Among them, ten groups were used as drug groups, one group as a model group, one group as a diclazuril group, and one group as a blank control group. Each chicken aged 12 days of the drug groups was subject to drug administration through mixing with feed, while that of the diclazuril group was administrated though drinking water. Each chicken aged 14 days in the drug groups, the diclazuril group and the model group was orally inoculated with 1.0×10^4 sporulated oocysts of Eimeria tenella. Each experimental chicken in all groups was free to feed and drink water until the test was over on the seventh day.
The anticoccidial index (ACI) criteria were calculated by
the calculation formula of Merck Corporation (USA), that is:
ACI=(relative weight gain rate+survival rate)×100−(lesion value+oocyst value).
Among them, the relative weight gain rate was calculated by
weighing each chicken at the beginning and end of the test, respectively, to calculate the average and relative weight gain rates. Relative weight gain rate=(test group weight gain rate/blank control group weight gain rate)×100%.
The survival rate was calculated by
recording the number of dead chickens in each group, performing an autopsy to determine the cause of death, and calculating the survival rate. Survival rate=(number of chickens alive at the end of the test/number of chickens in the test group)×100%
The lesion value was calculated by
slaughtering each chicken on the 7th day after infection to take the cecum (as shown in FIG. 5-6), and scoring the intestinal lesion of each chicken according to the lesion scoring method designed by […] and Reid (1970), and converting the lesion score into the lesion value.
Lesion scoring: (in case of lesion inconsistence between both sides of cecum, the more severe shall prevail):
0 point: no macroscopic lesions;
1 point: there are a few of petechiae scattered in the cecal wall, the cecal wall is not thickened, and the contents therein are normal;
2 points: the lesion number is more, the cecum contents are obviously bloody, the cecal wall is slightly thickened, and the contents therein are normal;
3 points: there is a lot of blood or there is a cecum core (blood clot or off-white cheese-like banana-shaped blocks) in the cecum, the cecal wall is obviously thickened, and the feces contents in the cecum are poor;
4 points: the cecum swells due to being full of a large amount of blood or cecum core with or without fecal residue, and it is also scored 4 points when the chicken dies for coccidiosis.
Lesion value (0-40)=average lesion score (0-4) for each test group×10
The oocyst value and the relative oocyst production (ROP) were calculated by collecting the chicken feces of each group, counting the number of oocysts in the feces according to McMaster counting, calculating the number of oocysts per gram of feces of each group, and obtaining the oocyst value by conversion according to Table 2.
Relative oocyst production (ROP)=(average oocyst production in the test group/average oocyst production in the model group)×100%. ROP≥15%, resistant to drugs; ROP<15%, no drug resistance.
The criteria for determining the drug efficacy were: ACI>180, high efficacy against coccidiosis; 160<ACI<180, medium efficacy against coccidiosis; 120<ACI<160, low efficacy against coccidiosis; ACI<120, inefficacy against coccidiosis.
Male chicks from layer aged 1 day were selected and raised to 12-day-old. Each was weighed, while excluding thin or overweight individuals, healthy chickens with individual weight differences of less than 10 g were selected, and randomly divided into 6 groups with each group including thirty chickens. […]

[1] = Example 2, Drug groups 1, 2 5 kg/ton in feed, Drug group 3 1:400 drinking water, diclazuril 0.2 ml/L
[2] = Example 3, Drug groups 5 kg/ton in feed, diclazuril 0.2 ml/L drinking water

N#CC(c1ccc(Cl)cc1)c1c(Cl)cc(-n2ncc(=O)[nH]c2=O)cc1Cl (stereo not drawn) [Diclazuril]
Effect against avian coccidiosis (conclusion) (Example 1): high therapeutic effect
Clinical symptoms (bloody stool, food intake) (Example 1, 4th to 6th day after infection): no bloody stool
Bloody stool (feces observation) (Example 1, 5th day after Eimeria challenge, partially mixed with blood / a large amount of feces mixed with blood / bloodless): bloodless
ACI value (Example 1, ACI=(relative weight gain rate+survival rate)×100−(lesion value+oocyst value), herbs 5 kg/ton in feed, diclazuril 0.2 ml/L drinking water): 201.2
Relative oocyst production (ROP) (Example 1, average oocyst production relative to model group, herbs 5 kg/ton in feed, diclazuril 0.2 ml/L drinking water): 0.0%
Lesion value (Example 1, lesion value (0-40) = average lesion score ×10, herbs 5 kg/ton in feed, diclazuril 0.2 ml/L drinking water): 0.0
Relative weight gain rate (Example 1, chickens, 1.0×10^4 oocysts at 14 days of age, herbs 5 kg/ton mixed with feed, diclazuril 0.2 ml/L drinking water, 9 days, relative to blank control): 101.2%
Survival rate (Example 1, chickens, 1.0×10^4 oocysts, herbs 5 kg/ton in feed, diclazuril 0.2 ml/L drinking water, 9 days): 100%
Criteria (drug efficacy by ACI) (Example 1, herbs 5 kg/ton in feed, diclazuril 0.2 ml/L drinking water): High (ACI>180, high efficacy against coccidiosis)
Oocyst value (Example 1, oocysts per gram of feces relative to model group, herbs 5 kg/ton in feed, diclazuril 0.2 ml/L drinking water): 0
Effect against avian coccidiosis (conclusion) (Example 2): high therapeutic effect
ACI value [1]: 198.9
Criteria (drug efficacy by ACI) [1]: High (ACI>180, high efficacy against coccidiosis)
Survival rate (Example 2, Drug groups 1, 2 5 kg/ton in feed, Drug group 3 1:400 drinking water, diclazuril 0.2 ml/L drinking water): 100%
Clinical symptoms (bloody stool) (Example 2): no bloody stool
Lesion value [1]: 0
Relative weight gain rate (Example 2, chickens, 1.0×10^4 oocysts, Drug groups 1, 2 5 kg/ton in feed, Drug group 3 1:400 drinking water, diclazuril 0.2 ml/L drinking water, 9 days): 98.9%
Oocyst value [1]: 0
Relative oocyst production (ROP) (Example 2, relative to model group, Drug groups 1, 2 5 kg/ton in feed, Drug group 3 1:400 drinking water, diclazuril 0.2 ml/L): 0%
ACI value [2]: 198.4
Criteria (drug efficacy by ACI) [2]: High (ACI>180, high efficacy against coccidiosis)
Survival rate [2]: 100%
Clinical symptoms (bloody stool) (Example 3): no bloody stool
Lesion value [2]: 0
Relative weight gain rate (Example 3, chickens, 1.0×10^4 oocysts, Drug groups 1-3 5 kg/ton in feed, diclazuril 0.2 ml/L drinking water, 9 days): 98.4%
Oocyst value [2]: 0
Relative oocyst production (ROP) (Example 3, relative to model group, Drug groups 5 kg/ton in feed, diclazuril 0.2 ml/L drinking water): 0%
